Assay results published in patent US11141410B2 (MERCK SHARP & DOHME CORP., priority 2015, dated 2021).

Key:
MRSA COL (MB5393) [1] = test: TarO Inhibitor/β-Lactam Synergy Assay (growth, OD600); type: cell-based, Staphylococcus aureus; details: for MITC95 TarO inhibitor + 4 μg/mL IPM; Bacteria: SA_MB5393: in combination with 4 μg/mL imipenem (IPM); for MITC95 TarO inhibitor + 8 μg/mL DCX; Bacteria: SA_MB5393: in combination with 8 μg/mL dicloxacillin (DCX)
Description: The TarO inhibitor/β-lactam synergy assay was performed to measure the re-sensitization of methicillin-resistant Staphylococci bacteria (MB5393: MRSA COL) to β-lactam antibiotics by TarO inhibitors. MRSA COL is a hospital-acquired penicillinase-negative clinically isolated strain commonly used in Staphylococcus aureus studies and is fully resistant to the antimicrobial bioactivity of β-lactam antibiotics, including but not limited to imipenem and dicloxacillin. […] MRSA COL is fully refractory to β-lactam antibiotic effect at the current clinical breakpoint concentrations and as such MRSA COL is fully viable at these concentrations.
The β-lactam antibiotic concentration was fixed at the clinical breakpoint (imipenem 4 μg/ml or dicloxacillin 8 μg/ml) and the TarO inhibitors were titrated by 2 fold starting from the highest concentration of 200 μM with final DMSO concentration of 2% in the assay. 5×10^5 colony forming unit of MRSA COL in cation-adjusted Mueller Hinton broth (CAMHB) was then mixed and the assay plate was incubated for 20 hours at 37° C. without shaking. After 20 hours, the optical density at 600 nm (OD600) was read for all wells to determine relative growth of MRSA COL.

MRSA COL (MB5393) [2] = test: as above; type: cell-based; details: Staphylococcus aureus, TarO inhibitor alone, >200 μM = 95% growth inhibition not achieved, 20 hours at 37° C., read-out: MITC95 TarO inhibitor alone, Bacteria: SA_MB5393

Structure (SMILES) | MITC95 TarO inhibitor + 4 μg/mL IPM; Bacteria: SA_MB5393 (MRSA COL (MB5393) [1]) | MITC95 TarO inhibitor + 8 μg/mL DCX; Bacteria: SA_MB5393 (MRSA COL (MB5393) [1]) | IC95 (MRSA COL (MB5393) [2]) | MITC95 concentration of β-lactam antibiotic alone (MRSA COL (MB5393) [1]; β-lactam alone, MRSA COL)
C[C@@H]1CN(C(=O)NCc2cncc3ccccc23)C(=O)OC1c1cc(C(F)(F)F)cc(C(F)(F)F)c1 (stereo in doubt) [Example 93, (5R,6S)-6-(3,5-bis(trifluoromethyl)phenyl)-N-(isoquinolin-4-ylmethyl)-5-methyl-2-oxo-1,3-oxazinane-3-carboxamide] | 0.13 µM | 0.50 µM | > 200 µM | –
C[C@H]1[C@@H](c2cc(C(F)(F)F)cc(C(F)(F)F)c2)OC(=O)N1C(=O)NCc1cncc2ccccc12 [Example 1, (4S,5R)-5-(3,5-bis(trifluoromethyl)phenyl)-N-(isoquinolin-4-ylmethyl)-4-methyl-2-oxooxazolidine-3-carboxamide] | 0.03 µM | 0.39 µM | > 200 µM | –
C[C@H]1[C@@H](c2cc(C(F)(F)F)cc(C(F)(F)F)c2)OC(=O)N1C(=O)NCc1cccc2ccnn12 [Example 2, (4S,5R)-5-[3,5-bis(trifluoromethyl)phenyl]-4-methyl-2-oxo-N-(pyrazolo[1,5-a]pyridin-7-ylmethyl)-1,3-oxazolidine-3-carboxamide] | 0.01 µM | 0.21 µM | > 200 µM | –
C[C@H]1[C@@H](c2cc(F)cc(C(F)(F)F)c2)OC(=O)N1C(=O)NCc1ccccc1[N+](=O)[O-] [Example 3, (4S,5R)-5-[3-fluoro-5-(trifluoromethyl)phenyl]-4-methyl-N-(2-nitrobenzyl)-2-oxo-1,3-oxazolidine-3-carboxamide] | 0.33 µM | 2.60 µM | > 200 µM | –
C[C@H]1[C@@H](c2cc(C(F)(F)F)cc(C(F)(F)F)c2)OC(=O)N1C(=O)NCc1cncc2cccnc12 [Example 4, (4S,5R)-5-[3,5-bis(trifluoromethyl)phenyl]-4-methyl-N-(1,6-naphthyridin-8-ylmethyl)-2-oxo-1,3-oxazolidine-3-carboxamide] | 0.13 µM | 0.39 µM | > 200 µM | –
C[C@H]1[C@@H](c2cc(F)cc(C(F)(F)F)c2)OC(=O)N1C(=O)NCc1ccccc1OC(F)F [Example 5, (4S,5R)-N-[2-(difluoromethoxy)benzyl]-5-[3-fluoro-5-(trifluoromethyl)phenyl]-4-methyl-2-oxo-1,3-oxazolidine-3-carboxamide] | 0.09 µM | 0.71 µM | > 200 µM | –
C[C@H]1[C@@H](c2cc(F)cc(C(F)(F)F)c2)OC(=O)N1C(=O)NCc1cccc2ccccc12 [Example 6, (4S,5R)-5-[3-fluoro-5-(trifluoromethyl)phenyl]-4-methyl-N-(naphthalen-1-ylmethyl)-2-oxo-1,3-oxazolidine-3-carboxamide] | 0.01 µM | 0.02 µM | > 200 µM | –
C[C@H]1[C@@H](c2cc(F)cc(C(F)(F)F)c2)OC(=O)N1C(=O)NCc1ccccc1C(F)(F)F [Example 7, (4S,5R)-5-[3-fluoro-5-(trifluoromethyl)phenyl]-4-methyl-2-oxo-N-[2-(trifluoromethyl)benzyl]-1,3-oxazolidine-3-carboxamide] | 0.05 µM | 0.33 µM | > 200 µM | –
COc1ccccc1CNC(=O)N1C(=O)O[C@H](c2cc(F)cc(C(F)(F)F)c2)[C@@H]1C [Example 8, (4S,5R)-5-[3-fluoro-5-(trifluoromethyl)phenyl]-N-(2-methoxybenzyl)-4-methyl-2-oxo-1,3-oxazolidine-3-carboxamide] | 0.13 µM | 1.32 µM | > 200 µM | –
C[C@H]1[C@@H](c2cc(F)cc(C(F)(F)F)c2)OC(=O)N1C(=O)NCc1cccc(N(C)C)c1 [Example 9, (4S,5R)-N-[3-(dimethylamino)benzyl]-5-[3-fluoro-5-(trifluoromethyl)phenyl]-4-methyl-2-oxo-1,3-oxazolidine-3-carboxamide] | 0.22 µM | 1.65 µM | > 200 µM | –
C[C@H]1[C@@H](c2cc(C(F)(F)F)cc(C(F)(F)F)c2)OC(=O)N1C(=O)NCc1cccc2nccnc12 [Example 10, (4S,5R)-5-[3,5-bis (trifluoromethyl)phenyl]-4-methyl-2-oxo-N-(quinoxalin-5-ylmethyl)-1,3-oxazolidine-3-carboxamide] | 0.06 µM | 0.37 µM | > 200 µM | –
C[C@H]1[C@@H](c2cc(F)cc(C(F)(F)F)c2)OC(=O)N1C(=O)NCc1cccc2c1OCCO2 [Example 11, (4S,5R)-N-(2,3-dihydro-1,4-benzodioxin-5-ylmethyl)-5-[3-fluoro-5-(trifluoromethyl)phenyl]-4-methyl-2-oxo-1,3-oxazolidine-3-carboxamide] | 0.13 µM | 1.42 µM | > 200 µM | –
C[C@H]1[C@@H](c2cc(F)cc(C(F)(F)F)c2)OC(=O)N1C(=O)NCc1cccc2cc[nH]c12 [Example 12, (4S,5R)-5-[3-fluoro-5-(trifluoromethyl)phenyl]-N-(1H-indol-7-ylmethyl)-4-methyl-2-oxo-1,3-oxazolidine-3-carboxamide] | 0.25 µM | 1.56 µM | > 200 µM | –
CCOc1ccccc1CNC(=O)N1C(=O)O[C@H](c2cc(F)cc(C(F)(F)F)c2)[C@@H]1C [Example 13, (4S,5R)-N-(2-ethoxybenzyl)-5-[3-fluoro-5-(trifluoromethyl)phenyl]-4-methyl-2-oxo-1,3-oxazolidine-3-carboxamide] | 0.06 µM | 0.35 µM | > 200 µM | –
C[C@H]1[C@@H](c2cc(F)cc(C(F)(F)F)c2)OC(=O)N1C(=O)NCc1nccc2sccc12 [Example 14, (4S,5R)-5-[3-fluoro-5-(trifluoromethyl)phenyl]-4-methyl-2-oxo-N-(thieno[3,2-c]pyridin-4-ylmethyl)-1,3-oxazolidine-3-carboxamide] | 0.49 µM | 5.63 µM | > 200 µM | –
Cc1onc(-c2c(Cl)cccc2Cl)c1C(=O)N[C@@H]1C(=O)N2[C@@H]1SC(C)(C)[C@@H]2C(=O)O [dicloxacillin, reference compound] | – | – | – | 128 µg/mL
